# Assay results from article PMC7744367 (European journal of medicinal chemistry, 2020).
# Read-outs that look alike come from different tables or passages of the source.
# How the values were obtained:
# [1] = test system: CQR Dd2 strain of P. falciparum; experiment: microbe, parasite or virus in culture; type: cell-based
# [2] = in vitro; conditions: human
# [3] = test system: CQS 3D7 strain; experiment: In vitro antiplasmodial activity, SYBR Green I-based fluorescent assay; type: cell-based, P. falciparum; conditions: Plasmodium falciparum, 3D7, 72 h, read-out: Antiplasmodial activity EC50 3D7
# [4] = test system: P. falciparum Dd2 asynchronous cultures; experiment: In vitro killing profile assay; type: cell-based; conditions: 5 × EC50, Dd2, compound washed out, growth monitored 96 h
# [5] = test system: tightly synchronized P. falciparum Dd2 cultures; experiment: Stage specific action assay; type: cell-based; conditions: 5 × EC50, synchronized Dd2, late schizont/segmenters
# [6] = Plasmodium falciparum, DD2, 72 h, read-out: Antiplasmodial activity EC50 Dd2, CQR Dd2 strain, 72 h incubation, at least three independent experiments
compound,measurement,setting,value
"CCN(CC)CCCC(C)Nc1ccnc2cc(Cl)ccc12 (centres unmarked) [CQ, chloroquine]",EC50,"[1]; Plasmodium falciparum, DD2, 72 h, read-out: Antiplasmodial activity EC50 Dd2",170 ± 20 nM
same,EC50 at 48 h,[2],10400 ± 860 nM
same,EC50,[3],20 ± 10 nM
"(E)-2-((1-(4-((6-chloro-2-styrylquinolin-4-yl)amino)butyl)-1H-1,2,3-triazol-4-yl)methyl)isoindoline-1,3-dione [compound 64]",EC50,"[1]; read-out: Antiplasmodial activity EC50 Dd2, CQR Dd2 strain, 72 h incubation, at least three independent experiments",1000 ± 180 nM
"CN1CCN(Cc2cn(-c3cc(/C=C/c4ccncc4)nc4ccc(Cl)cc34)nn2)CC1 [compound 29, (E)-6-chloro-4-(4-((4-methylpiperazin-1-yl)methyl)-1H-1,2,3-triazol-1-yl)-2-(2-(pyridin-4-yl)vinyl)quinoline]",EC50,[1]; [6],> 8000 nM
"Clc1ccc2nc(/C=C/c3ccncc3)cc(-n3cc(CN4CCOCC4)nn3)c2c1 [compound 28, (E)-4-((1-(6-chloro-2-(2-(pyridin-4-yl)vinyl)quinolin-4-yl)-1H-1,2,3-triazol-4-yl)-methyl)morpholine]",EC50,[1]; [6],> 8000 nM
"O=C1c2ccccc2C(=O)N1Cc1cn(-c2cc(/C=C/c3ccncc3)nc3ccc(Cl)cc23)nn1 [compound 32, (E)-2-((1-(6-chloro-2-(2-(pyridin-4-yl)vinyl)quinolin-4-yl)-1H-1,2,3-triazol-4-yl)methyl)isoindoline-1,3-dione]",EC50,[1]; [6],> 8000 nM
"O=C1c2ccccc2C(=O)N1Cc1cn(CCNc2cc(/C=C/c3ccncc3)nc3ccc(Cl)cc23)nn1 [compound 57, (E)-2-((1-(2-((6-chloro-2-(2-(pyridin-4-yl)vinyl)quinolin-4-yl)amino)ethyl)-1H-1,2,3-triazol-4-yl)methyl)isoindoline-1,3-dione]",fold more potent than compound 32,[1]; Dd2 EC50 ratio,~8 fold
"Clc1ccc2nc(/C=C/c3ccncc3)cc(NCCCCn3cc(CN4CCCCC4)nn3)c2c1 [compound 60, (E)-6-chloro-N-(4-(4-(piperidin-1-ylmethyl)-1H-1,2,3-triazol-1-yl)butyl)-2-(2-(pyridin-4-yl)vinyl)quinolin-4-amine]",parasite viability after 24 and 48 h exposure,[4],complete loss of parasite viability
same,"effect on intraerythrocytic development, compound added at 42 h",[5],did not affect the schizont maturation and reinvasion of new merozoites
"Clc1ccc2nc(/C=C/c3ccncc3)cc(NCCn3cc(CN4CCOCC4)nn3)c2c1 [compound 53, (E)-6-chloro-N-(2-(4-(morpholinomethyl)-1H-1,2,3-triazol-1-yl)ethyl)-2-(2-(pyridin-4-yl)vinyl)quinolin-4-amine]",fold improved activity over analogue 28,[1]; Dd2 EC50 ratio,above 5 fold
